According to ChEMBL document CHEMBL4513160, “CO-ADD screening of MMV (CH) - Small Polar Library”:
Converted amounts (≈) assume the structure as drawn.

Assays:
[1] = test system: Pseudomonas aeruginosa; assay: Antibacterial activity against Pseudomonas aeruginosa PAO397 [PAO1 d(mexAB-oprM) d(mexCD-oprJ) d(mexEF-oprN) d(mexJKL) d(mexXY) d(opmH)] (CO-ADD:GN_211); MIC in CAMBH media using NBS plates, by OD(600); format: functional; conditions: ASSAY_TEST Inhibition of Bacterial Growth, detection method Absorption (OD600), MEDIA CAMHB, plate type 384well, CORNING #3640, time 18 hr
[2] = test system: Pseudomonas aeruginosa; assay: microbe, parasite or virus in culture; conditions: ATCC 27853, 18 h, ASSAY_TEST Inhibition of Bacterial Growth, detection method Absorption (OD600), MEDIA CAMHB, plate type 384well, NBS, CORNING #3640
Description: Antibacterial activity against Pseudomonas aeruginosa ATCC 27853 (CO-ADD:GN_042); MIC in CAMBH media using NBS plates, by OD(600)

[3] = test system: Acinetobacter baumannii; assay: microbe, parasite or virus in culture; conditions: ATCC 19606, 18 h, ASSAY_TEST Inhibition of Bacterial Growth, detection method Absorption (OD600), MEDIA CAMHB, plate type 384well, NBS, CORNING #3640
Description: Antibacterial activity against Acinetobacter baumannii ATCC 19606 (CO-ADD:GN_034); MIC in CAMBH media using NBS plates, by OD600

| SMILES | MIC [1] [µM] | MIC [2] [µM] | MIC [3] [µM] |
| --- | --- | --- | --- |
| C1CCC(C2CCNCC2)OC1 (stereo unspecified) | > 300 | > 300 | > 300 |
| O=C(NC[C@H]1CCCN1)c1ccc2cccc(Cl)c2n1 | 300 (≈ 86.9 µg/mL) | > 300 | > 300 |
| N[C@@H]1CCCc2c(F)cc(F)cc21 | > 300 | > 300 | > 300 |
| CS(=O)(=O)c1ccc(CN)o1 | > 300 | > 300 | > 300 |
| NS(=O)(=O)NCC1CCN(c2cccc(Br)c2)C1 (stereo unspecified) | > 300 | > 300 | > 300 |
| COc1ccc2c(c1)CCCC(=O)N2 | > 300 | > 300 | > 300 |
| NCC1Cc2ccccc21 (stereo unspecified) | > 300 | > 300 | > 300 |
| Cc1cccc(OCCc2noc(C3CNC3)n2)c1 | 200 (≈ 51.9 µg/mL) | > 300 | > 300 |
| CCCNc1nc(C)c(C(C)=O)s1 | 200 (≈ 39.7 µg/mL) | > 300 | > 300 |
| Nc1nc(-c2ccc3c(c2)CCCC(=O)N3)cs1 | > 300 | > 300 | > 300 |
| NCCC(=O)N1CCCC(CCc2ccc(F)cc2)C1 (stereo unspecified) | > 300 | > 300 | > 300 |
| NCc1cccc(-c2nccs2)c1 | > 300 | > 300 | > 300 |
| CCOc1ccc(Cl)cc1CCNS(=O)(=O)N(C)C | > 300 | > 300 | > 300 |
| CCCOc1ccccc1C(=O)NC1CCNC1 (stereo unspecified) | 25 (≈ 6.21 µg/mL) | > 300 | > 300 |
| CCCOc1ccc(NS(=O)(=O)N(C)C)cc1Cl | > 300 | > 300 | > 300 |
| Cc1nnc(SCC(=O)NCCCc2csc(N)n2)s1 | > 300 | > 300 | > 300 |
| Fc1cccnc1OC1CCNCC1 | > 300 | > 300 | > 300 |
| CCCc1cc(C(=O)NCCc2nc(C)c[nH]2)[nH]n1 | 300 (≈ 78.4 µg/mL) | > 300 | > 300 |
| N#Cc1nnc(-c2ccccc2)o1 | > 300 | > 300 | > 300 |
| CSC(C)(C)COC(=O)c1ccc(-n2ccnc2)nc1 | > 300 | > 300 | > 300 |
| COCC(C)NCc1ccccc1CN1CCCC1=O (stereo unspecified) | > 300 | > 300 | > 300 |

| SMILES | MIC [1] [µM] | MIC [2] [µM] | MIC [3] [µM] |
| --- | --- | --- | --- |
| CCC(C#N)NC(=O)c1cnc(OC(C)C)c(Cl)c1 (stereo unspecified) | > 300 | > 300 | > 300 |
| NCCc1cccc2cc[nH]c12 | > 300 | > 300 | > 300 |
| COc1cccc(CNCc2ccccn2)c1 | > 300 | > 300 | > 300 |
| CC(C)NC(=O)NCC1(N2CCOCC2)CCSC1 (stereo unspecified) | > 300 | > 300 | > 300 |
| Cc1ocnc1C(=O)Nc1ccc2c(c1)NCCC2 | > 300 | > 300 | > 300 |
| Cc1cc(C(=O)NC2CCC(=O)NC2)cc(Cl)c1Br (stereo unspecified) | > 300 | > 300 | > 300 |
| CCCn1cnnc1CNC | > 300 | > 300 | > 300 |
| OCCNCCNCc1ccc(-c2ccccc2F)o1 | > 300 | > 300 | > 300 |
| CN(C)C(=O)Nc1cc(F)cc(F)c1 | > 300 | > 300 | > 300 |
| Cc1cc(Br)cc(C(=O)NCc2nccc(N)n2)c1 | > 300 | > 300 | > 300 |
| CNCC(=O)NC(C)c1nc(-c2ccc(Br)cc2)no1 (stereo unspecified) | > 300 | > 300 | > 300 |
| CNc1nnc(-c2ccccc2)s1 | > 300 | > 300 | > 300 |
| Cn1cc(CC(=O)Nc2ccc(I)cn2)cn1 | > 300 | > 300 | > 300 |
| CCOC(=O)C(CN)CC(C)C (stereo unspecified) | > 300 | > 300 | > 300 |
| CC(C)C(=O)c1cnccc1N | > 300 | > 300 | > 300 |
| Cc1ccc(C(N)c2ccccn2)cc1 (stereo unspecified) | > 300 | > 300 | > 300 |
| NCc1nc(-c2ccc(Cl)cc2)c[nH]1 | > 300 | > 300 | > 300 |
| CCN1CCN(c2cc(C#N)ccn2)CC1 | > 300 | > 300 | > 300 |
| Cc1ccc(C)c2c(=O)cc(CN3CCC(N)C3)[nH]c12 (stereo unspecified) | > 300 | > 300 | > 300 |
| Cc1cccc(NC(C)c2ccc(S(N)(=O)=O)cc2)n1 (stereo unspecified) | > 300 | > 300 | > 300 |
| Cc1cc(N2CCN(CCO)CC2)nc2ccccc12 | > 300 | > 300 | > 300 |
